In PubChem BioAssay AID256 (DTP/NCI, 2004):
Values joined by “and” are separate entries in the source; they are usually repeats but may differ in a detail not shown here. Identical values can stand only once. Inconclusive results and toxic doses are left out. Rule for the calls: active = survival T/C of 150% or more; inactive = T/C below 125% in these data.

System: CD2F1 mice, L1210 leukemia ip, survival T/C
Assay: NCI In Vivo Anticancer Drug Screen. Data for tumor model L1210 Leukemia (intraperitoneal) in CD2F1 (CDF1) mice
Conditions: higher = longer survival
In short: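 Vehicle-treated tumor-bearing mice served as controls (C) for compound-treated mice (T). Reported figure is T divided by C.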

[1] = endpoint: mean survival time, dose: 50.0 mg/kg/injection, schedule: Q01DX009 (ip), vehicle: saline with Tween-80
[2] = endpoint: mean survival time, dose: 100.0 mg/kg/injection, schedule: Q01DX009 (ip), vehicle: saline with Tween-80
[3] = endpoint: mean survival time, dose: 200.0 mg/kg/injection, schedule: Q01DX009 (ip), vehicle: saline with Tween-80
[4] = endpoint: mean survival time, dose: 100.0 mg/kg/injection, schedule: Q04DX003 (ip), vehicle: saline with Tween-80
[5] = endpoint: mean survival time, dose: 200.0 mg/kg/injection, schedule: Q04DX003 (ip), vehicle: saline with Tween-80

Measured: T/C

C=C(Cl)C(=NC(C)(C)C)Nc1ccccc1C
inactive: endpoint: median survival time, dose: 3.12 mg/kg/injection, schedule: Q01DX009 (ip), vehicle: Klucel (hydroxypropylcellulose) (HPC) 101 % of control | endpoint: median survival time, dose: 6.25 mg/kg/injection, schedule: Q01DX009 (ip), vehicle: Klucel (hydroxypropylcellulose) (HPC) 109 % of control | endpoint: median survival time, dose: 12.5 mg/kg/injection, schedule: Q01DX009 (ip), vehicle: Klucel (hydroxypropylcellulose) (HPC) 118 % of control | endpoint: median survival time, dose: 25.0 mg/kg/injection, schedule: Q01DX009 (ip), vehicle: Klucel (hydroxypropylcellulose) (HPC) 114 % of control | endpoint: median survival time, dose: 50.0 mg/kg/injection, schedule: Q01DX009 (ip), vehicle: Klucel (hydroxypropylcellulose) (HPC) 114 % of control | endpoint: median survival time, dose: 50.0 mg/kg/injection, schedule: Q01DX009 (ip), vehicle: saline 103 % of control | endpoint: median survival time, dose: 100.0 mg/kg/injection, schedule: Q01DX009 (ip), vehicle: saline 108 % of control | endpoint: median survival time, dose: 200.0 mg/kg/injection, schedule: Q01DX009 (ip), vehicle: saline 111 % of control

CCOC(CC)c1ccccc1 (configuration not stated)
inactive: [1] 103 % of control | [2] 103 % of control | [3] 106 % of control

CSCCCCCCSC
inactive: [4] 95 % of control | [5] 101 % of control

CNC(=O)OCc1c(COC(=O)NC)c(-c2ccc(F)cc2)n2c1CCC2
inactive: endpoint: mean survival time, dose: 3.13 mg/kg/injection, schedule: Q01DX009 (ip), vehicle: Klucel (hydroxypropylcellulose) (HPC) 115 % of control | endpoint: mean survival time, dose: 6.25 mg/kg/injection, schedule: Q01DX009 (ip), vehicle: Klucel (hydroxypropylcellulose) (HPC) 107 % of control | endpoint: mean survival time, dose: 12.5 mg/kg/injection, schedule: Q01DX009 (ip), vehicle: Klucel (hydroxypropylcellulose) (HPC) 118 % of control

c1ccc2c(c1)[nH]c1c2cc[n+]2cc3c(cc12)CCCC3
inactive: endpoint: mean survival time, dose: 5.0 mg/kg/injection, schedule: Q01DX001 (ip), vehicle: saline 100 % of control | endpoint: mean survival time, dose: 10.0 mg/kg/injection, schedule: Q01DX001 (ip), vehicle: saline 101 % of control | endpoint: mean survival time, dose: 20.0 mg/kg/injection, schedule: Q01DX001 (ip), vehicle: saline 106 % of control | endpoint: mean survival time, dose: 40.0 mg/kg/injection, schedule: Q01DX001 (ip), vehicle: saline 109 % of control

CSCC(NC(=O)OCc1ccccc1)C(=O)O (configuration not stated)
inactive: [4] 101 % of control | [5] 101 % of control

Cc1cccc(Cl)c1NC(=O)C(C)C
inactive: endpoint: mean survival time, dose: 100.0 mg/kg/injection, schedule: Q04DX003 (ip), vehicle: other 94 % of control | endpoint: mean survival time, dose: 200.0 mg/kg/injection, schedule: Q04DX003 (ip), vehicle: other 91 % of control | endpoint: mean survival time, dose: 400.0 mg/kg/injection, schedule: Q04DX003 (ip), vehicle: other 87 % of control

CCOC(=O)c1c(C)[nH]oc1=O
inactive: [2] 96 % of control

C=CCNc1nc2c(s1)CCc1cc(OC)c(OC)cc1-2
inactive: endpoint: mean survival time, dose: 12.5 mg/kg/injection, schedule: Q01DX009 (ip), vehicle: saline with Tween-80 92 % of control and 97 % of control | endpoint: mean survival time, dose: 25.0 mg/kg/injection, schedule: Q01DX009 (ip), vehicle: saline with Tween-80 95 % of control and 101 % of control | [1] 97 % of control and 98 % of control | [2] 97 % of control and 101 % of control | [3] 97 % of control and 101 % of control | endpoint: mean survival time, dose: 400.0 mg/kg/injection, schedule: Q01DX009 (ip), vehicle: saline with Tween-80 106 % of control

CCCCCCCCCCCCCCn1cnc2c(Cl)ncnc21
inactive: endpoint: mean survival time, dose: 12.5 mg/kg/injection, schedule: Q01DX005 (ip), vehicle: other 105 % of control | endpoint: mean survival time, dose: 25.0 mg/kg/injection, schedule: Q01DX005 (ip), vehicle: other 97 % of control | endpoint: mean survival time, dose: 50.0 mg/kg/injection, schedule: Q01DX005 (ip), vehicle: other 94 % of control | endpoint: mean survival time, dose: 100.0 mg/kg/injection, schedule: Q01DX005 (ip), vehicle: other 97 % of control | endpoint: mean survival time, dose: 200.0 mg/kg/injection, schedule: Q01DX005 (ip), vehicle: other 102 % of control
